In patent EP1383793B1 (priority 2000, dated 2001):
pKd: −log10 of the molar value. Residues, ends and D or L forms follow the SMILES beside them. *: point of attachment. Biotin = O=C1N[C@H]2[C@H](CS[C@H]2CCCCC(=O)*)N1

Tests used:
[1] = target: T1, human insulin receptor (HIR) (Homo sapiens, UniProt P06213); experiment: 125I-insulin competition binding assay on solubilised purified receptor; conditions: read-out: Kd (µM) HIR
T1 construct: made in house

[2] = target: T2, Insulin receptor (Homo sapiens, UniProt P06213); experiment: BIAcore competition: IR pre-incubated with test substance, injected over immobilised insulin; format: binding; conditions: peptide about 40 µM, IR 450 nM
T2 construct: composed of the extracellular domains of both the α and β chains of the natural receptor; made in house; background b13 names human embryonic kidney 293 cells for the Bass et al. construct
Experimental: Flowcell-1 was used for background binding to correct for any non-specific binding. […] The surface was regenerated with 25 mM NaOH. […] Thus, the system was validated for competition studies. […] The amino acid sequences referred to in the tables are identified in Figures 47 and 48, except the 447 and 2A9 sequences, which are shown below. TABLE 9: BIAcore Results-Fusion Proteins Compete for Binding to IR

[3] = target: human IGF-1 receptor (HIGF-1R) (Homo sapiens, UniProt P08069); experiment: 125I-IGF-1 competition binding assay on solubilised purified receptor; conditions: for Ratio: Kd HIGF1R / Kd HIR
[4] = target: T3, IGF-1R (Homo sapiens, UniProt P08069); experiment: Phage ELISA, binding of phage-displayed peptides to IGF-1R; conditions: 405 nm
T3 construct: Soluble IGF-1R was obtained from R&D Systems; purchased R&D Systems 391-GR/CF
Experimental: Figures 1A-10G. Amino acid sequences comprising the motif of Formulas 1 through 10. […] One hundred microliters of this solution was added to an appropriate number of wells in a 96-well microtiter plate (MaxiSorp plates, Nunc) and incubated overnight at 4°C. […] Subsequent steps are the same for pooled and clonal phage. […] Phage resuspended in MPBS were added to duplicate wells (100 µl/well) and incubated at RT for 1 h. […] Incubation was for 1 h at RT, followed by PBS washes as described. […] Phage ELISA. […] The wells were blocked with 200 µl of MPBS for 1.5 h at RT. Phage were added at 100 µl per well. Peptides were added as noted below and allowed to incubate at RT for 3 h. The plates were washed 3 times with PBST. A solution of 1:3000 diluted HRP:Anti-M13 conjugate at 100 µl per well of was added for 1 h. Following a repeat of the washing, 100 µl of ABTS was added for 15-30 min. […] Phage ELISA. […] Phage were added at 100 µl per well. Peptides were added as noted below and allowed to incubate at RT for 3 h. The plates were washed 3X with PBST. A solution of 1:3000 diluted HRP:Anti-M13 Conjugate at 100 µl per well of was added for 1 h. Following a repeat of the washing, 100 µl of ABTS was added for 15-30 min. The OD405 was measured using a SpectraMax 340 Microplate Spectrophotometer.

[5] = target: T4, IR (Homo sapiens, UniProt P06213); experiment: Phage ELISA, binding of phage-displayed peptides to IR
T4 construct: composed of the extracellular domains of both the α and β chains of the natural receptor; made in house; background b13 names human embryonic kidney 293 cells for the Bass et al. construct
Experimental: Amino acid sequences comprising the motif of Formulas 1 through 10. […] Fifty microliters of this solution was added to an appropriate number of wells in a 96-well microtiter plate (MaxiSorp plates, Nunc) and incubated overnight at 4°C. […] To isolate specific binders, each library was panned against a soluble form of the human IR. This IR is composed of the extracellular domains of both the α and β chains of the natural receptor, as well as the constant domain from immunoglobulin Fc, retaining the β-α-α-β structure described above. Because the IR is expressed in a eukaryotic system, disulfide bond formation and glycosylation patterns should mimic the wild-type receptor. The details of this recombinant protein construct are described in Bass et al. (1996). Phage ELISA. […] The wells were blocked with 200 µl of MPBS for 1.5 h at RT. […] Peptides were added as noted below and allowed to incubate at RT for 3 h. The plates were washed 3 times with PBST. A solution of 1:3000 diluted HRP:Anti-M13 conjugate at 100 µl per well of was added for 1 h. Following a repeat of the washing, 100 µl of ABTS was added for 15-30 min. […] Phage ELISA. […] Peptides were added as noted below and allowed to incubate at RT for 3 h. […] A solution of 1:3000 diluted HRP:Anti-M13 Conjugate at 100 µl per well of was added for 1 h. Following a repeat of the washing, 100 µl of ABTS was added for 15-30 min. The OD405 was measured using a SpectraMax 340 Microplate Spectrophotometer.

[6] = test system: adipocytes; experiment: 3H-glucose uptake into adipocytes (fat cell assay, FFC); format: cell-based, Mouse; set-up: key to Resp.: -2 (antagonist); +2 (agonist); conditions: for Resp.: Subjective ranking, basal and sub maximal insulin, includes series A; for ED50: Estimated, not calculated values; for ED50 in the effect assay (FFC): best peptides, agonists
[7] = target: T4, IR; experiment: Phage ELISA, competition of phage binding by soluble synthetic peptides, IR-coated wells; conditions: Insulin Receptor
Experimental: (§1) Peptide Competition. […] Twenty microliters of the stock synthetic-peptide solution was added to Row A. A series of 20 µl into 100 µl dilutions were performed until Row G. Twenty microliters were discarded from Row G to maintain 100 µl per well. Row H was reserved as no peptide wells. […] The volume was maintained by the addition of 18 µl of the phage solution to Row A.
(§2) Phage ELISA. […] The wells were blocked with 200 µl of 2% (w/v) Carnation non-fat dry milk in PBS for 1.5 h at RT. Phage were added at 100 µl per well. Peptides were added as noted below and allowed to incubate at RT for 3 h. The plates were washed 3X with PBST. A solution of 1:3000 diluted HRP:Anti-M13 Conjugate at 100 µl per well of was added for 1 h. Following a repeat of the washing, 100 µl of ABTS was added for 15-30 min. The OD405 was measured using a SpectraMax 340 Microplate Spectrophotometer.
(§3) Peptide Competition. Peptide Competition Curves were produced during the phage ELISA across rows in triplicate. The stock synthetic peptide solution was added to Column 12 so that the total volume totaled 150 µl (additional phage solution was added when necessary). A serial dilution was made by transferring 50 µl from Column 12 into 100 µl in Column 11, 50 µl from Column 11 into 100 µl in Column 10, and continuing the serial dilution until Column 2. Fifty microliters were discarded from Column 2 to maintain 100 µl per well. Column 1 was reserved as no peptide wells.
(§4) A p53-like peptide that binds to MDM2 was used as a negative control.

[8] = target: T3, IGF-1R; experiment: Phage ELISA, competition of phage binding by soluble synthetic peptides, IGF-1R-coated wells; conditions: IGF Receptor
Experimental: as §1, §2, §3, §4

[9] = Precipitate in diluted peptide stock prior to adding to the fat cell assay; solubility under assay conditions; format: physicochemical; conditions: for Comments (precipitation): diluted stock prior to adding to assay
[10] = target: T2, Insulin receptor; experiment: Heterogeneous time-resolved fluorescence assay (TRFA) on insulin receptor; format: binding; conditions: peptide at 30 µM
Experimental: In this assay, saEu forms a ternary complex with bP and IR (i.e., IR:bP:saEu complex). The TRFD assay format is well established, sensitive, and quantitative (Tompkins et al., 1993). The assay can use a single-chain antibody or a biotinylated peptide.
In these assays, soluble IR is coated on the surface of microtiter wells, blocked by a solution of 0.5% BSA and 2% non-fat milk in PBS, and then incubated with biotinylated peptide or rVab. Unbound bP is then washed away and saEu is added to complex with receptor-bound bP. Upon addition of the acidic enhancement solution, the bound europium is released as free Eu^3+ which rapidly forms a highly fluorescent and stable complex with components of the enhancement solution. The IR:bP bound saEu is then converted into its highly fluorescent state and detected by a detector such as Wallac Victor II (EG&G Wallac, Inc.)
• a. Heterogeneous Time-Resolved Fluorescence Assay. […] The plates were blocked with TBS containing 2% milk and 0.5% BSA for 1 h at RT followed by three TBS washes. […] After TBS wash, europium-labeled streptavidin at 1 µg/ml in assay buffer (100 mM Tris-HCl, pH 7.8; 150 mM NaCl; 0.5% BSA; 0.05% bovine Ig; 0.05% NaN3; 0.01% Tween-20) was added to the plates and incubated for 1 h. To test binding of rVab antibodies to IR, Eu-labeled rVab antibodies in assay buffer were added to the plates and incubated for 2 h to overnight. After incubation with Eu-labeled streptavidin (for peptide test) or europium-labeled rVabs, the plates were washed 5 times with Tris-buffered saline (pH 7.5) containing 0.1 % Tween-20 (TTBS) and tapped dry. Sixty microliters of EG&G Wallac enhancement solution (100 mM acetone-potassium hydrogen pthalate, pH 3.2; […] 2-naphtyltrifluoroacetate; […] tri(n-octyl)-phosphine oxide; 0.1 % Triton X-100) was added into each well, and the plates were placed onto a shaker for 20 min at RT. […] Homogeneous Time-Resolved Fluorescence Assay. […] For library screening, 20 µM of small organic molecules in 2 % DMSO are included in the mixture.

T3 sequence (P08069 31-736 limits assumed): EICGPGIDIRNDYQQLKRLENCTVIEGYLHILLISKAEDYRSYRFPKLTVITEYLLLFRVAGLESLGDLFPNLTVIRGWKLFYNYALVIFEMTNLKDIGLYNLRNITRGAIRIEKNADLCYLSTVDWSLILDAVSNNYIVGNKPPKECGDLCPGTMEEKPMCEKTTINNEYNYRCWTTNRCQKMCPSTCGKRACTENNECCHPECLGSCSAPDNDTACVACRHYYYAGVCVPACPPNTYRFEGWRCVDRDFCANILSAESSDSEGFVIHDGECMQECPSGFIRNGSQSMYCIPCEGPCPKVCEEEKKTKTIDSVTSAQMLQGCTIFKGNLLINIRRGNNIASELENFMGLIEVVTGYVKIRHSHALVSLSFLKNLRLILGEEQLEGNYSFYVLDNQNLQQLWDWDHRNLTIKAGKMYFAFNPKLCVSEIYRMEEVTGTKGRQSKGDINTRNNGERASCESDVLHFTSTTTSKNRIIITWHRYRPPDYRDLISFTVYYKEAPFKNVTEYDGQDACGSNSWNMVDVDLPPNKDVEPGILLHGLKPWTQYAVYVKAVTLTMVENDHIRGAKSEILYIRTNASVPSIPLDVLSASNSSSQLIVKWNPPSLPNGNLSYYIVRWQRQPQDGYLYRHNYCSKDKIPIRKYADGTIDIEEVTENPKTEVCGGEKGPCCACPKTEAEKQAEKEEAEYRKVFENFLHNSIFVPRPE
T3 sequence (P08069 741-935 limits assumed): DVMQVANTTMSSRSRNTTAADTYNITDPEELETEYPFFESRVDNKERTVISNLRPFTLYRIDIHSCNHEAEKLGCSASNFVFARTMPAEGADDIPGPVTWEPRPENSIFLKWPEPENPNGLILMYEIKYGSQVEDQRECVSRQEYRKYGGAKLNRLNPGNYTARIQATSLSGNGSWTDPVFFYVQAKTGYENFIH
Sequence of human IGF-1 receptor (HIGF-1R) (P08069 31-736 limits assumed): as the sequence (P08069 31-736 limits assumed) above
Sequence of human IGF-1 receptor (HIGF-1R) (P08069 741-1367 limits assumed): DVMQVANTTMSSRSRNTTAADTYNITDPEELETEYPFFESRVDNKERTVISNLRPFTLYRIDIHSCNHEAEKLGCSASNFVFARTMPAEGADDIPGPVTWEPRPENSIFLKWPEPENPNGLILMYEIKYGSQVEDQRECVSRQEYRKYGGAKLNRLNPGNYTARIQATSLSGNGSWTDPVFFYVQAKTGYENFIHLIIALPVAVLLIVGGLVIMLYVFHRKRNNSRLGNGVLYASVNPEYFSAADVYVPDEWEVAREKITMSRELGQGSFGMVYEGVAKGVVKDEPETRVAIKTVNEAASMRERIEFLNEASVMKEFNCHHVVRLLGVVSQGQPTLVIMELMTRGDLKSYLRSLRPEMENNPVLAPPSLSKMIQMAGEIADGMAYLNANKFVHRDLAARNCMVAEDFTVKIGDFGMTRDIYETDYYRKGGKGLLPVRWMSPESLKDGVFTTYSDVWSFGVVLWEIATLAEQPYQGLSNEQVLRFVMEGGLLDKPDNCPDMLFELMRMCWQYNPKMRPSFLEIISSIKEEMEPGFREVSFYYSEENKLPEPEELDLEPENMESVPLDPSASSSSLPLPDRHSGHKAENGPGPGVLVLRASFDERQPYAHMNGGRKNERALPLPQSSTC
T4 sequence (P06213 28-758 limits assumed): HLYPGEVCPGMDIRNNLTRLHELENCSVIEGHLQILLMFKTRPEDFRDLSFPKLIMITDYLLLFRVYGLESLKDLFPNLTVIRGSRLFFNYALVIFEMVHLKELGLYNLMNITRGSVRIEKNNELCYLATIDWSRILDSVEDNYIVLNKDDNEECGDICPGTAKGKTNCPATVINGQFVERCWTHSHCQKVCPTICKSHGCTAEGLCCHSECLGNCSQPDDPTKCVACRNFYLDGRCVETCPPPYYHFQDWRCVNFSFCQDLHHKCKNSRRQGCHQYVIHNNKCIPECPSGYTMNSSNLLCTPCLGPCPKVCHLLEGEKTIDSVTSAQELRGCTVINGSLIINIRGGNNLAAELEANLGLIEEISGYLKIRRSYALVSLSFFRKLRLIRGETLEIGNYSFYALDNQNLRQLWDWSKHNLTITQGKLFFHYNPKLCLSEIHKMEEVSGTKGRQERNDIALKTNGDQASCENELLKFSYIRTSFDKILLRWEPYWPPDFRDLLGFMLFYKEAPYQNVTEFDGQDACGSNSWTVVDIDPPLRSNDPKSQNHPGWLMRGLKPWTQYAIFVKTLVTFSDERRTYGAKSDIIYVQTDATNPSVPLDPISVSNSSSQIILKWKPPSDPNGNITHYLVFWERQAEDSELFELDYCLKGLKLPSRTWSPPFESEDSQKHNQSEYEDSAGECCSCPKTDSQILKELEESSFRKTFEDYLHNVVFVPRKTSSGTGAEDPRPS
T4 sequence (P06213 763-956 limits assumed): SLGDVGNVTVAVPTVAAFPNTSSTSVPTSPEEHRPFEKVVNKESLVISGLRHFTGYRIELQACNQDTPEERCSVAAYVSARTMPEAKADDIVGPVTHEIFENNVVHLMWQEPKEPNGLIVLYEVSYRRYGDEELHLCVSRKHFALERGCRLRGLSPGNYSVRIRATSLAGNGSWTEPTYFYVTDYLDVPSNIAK
T2 sequence (P06213 28-758 limits assumed): as the sequence (P06213 28-758 limits assumed) above
T2 sequence (P06213 763-956 limits assumed): as the sequence (P06213 763-956 limits assumed) above
T1 sequence (P06213 28-758 limits assumed): as the sequence (P06213 28-758 limits assumed) above
T1 sequence (P06213 763-1382 limits assumed): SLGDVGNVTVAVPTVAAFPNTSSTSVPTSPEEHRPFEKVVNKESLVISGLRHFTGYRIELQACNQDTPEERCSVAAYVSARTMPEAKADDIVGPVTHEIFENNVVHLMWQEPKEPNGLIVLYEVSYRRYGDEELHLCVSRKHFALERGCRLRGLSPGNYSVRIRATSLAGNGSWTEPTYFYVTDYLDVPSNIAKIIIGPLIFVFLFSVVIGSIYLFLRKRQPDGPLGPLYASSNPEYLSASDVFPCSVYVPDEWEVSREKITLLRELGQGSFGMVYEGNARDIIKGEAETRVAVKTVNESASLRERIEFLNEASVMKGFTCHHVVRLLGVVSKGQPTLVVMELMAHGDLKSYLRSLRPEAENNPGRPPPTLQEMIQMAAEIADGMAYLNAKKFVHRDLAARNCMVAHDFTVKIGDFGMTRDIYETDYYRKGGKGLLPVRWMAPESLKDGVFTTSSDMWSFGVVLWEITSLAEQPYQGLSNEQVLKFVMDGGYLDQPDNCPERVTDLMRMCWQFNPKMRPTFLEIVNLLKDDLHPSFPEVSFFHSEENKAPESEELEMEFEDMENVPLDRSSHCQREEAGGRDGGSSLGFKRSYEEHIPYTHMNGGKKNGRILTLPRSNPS

Compound	Kd [1] [µM]	% Binding [2] [%]	pKd [3]	Absorbance Values sIGF-1R [4]	Absorbance Values IR ([5]; 405 nm)	Resp. [6]	Ratio [3]	binding to IR when expressed as phage [5]	Comments (dose response, effect at basal insulin) [6]	ED50 [6]	ED50 in the effect assay (FFC) [6] [µM]	n (Hill plot) ([7]; 20D3 Phage)	n (Hill plot) ([7]; H2 Phage)	n (Hill plot) ([8]; H2 Phage)	Result (RUs) ([2]; IR alone 128 RU)	Comments (precipitation) [9]	n (Hill plot) ([8]; 20D3 Phage)	binding of rVab 12H10 to IR [10]	Comments (soluble under assay conditions) ([9]; under assay conditions, no ppt in microscope, low magnification) [µM]
CC(C)C[C@H](NC(=O)CNC(=O)[C@H](CC(N)=O)NC(=O)[C@H](Cc1ccc(O)cc1)NC(=O)[C@H](Cc1ccccc1)NC(=O)[C@H](C)NC(=O)[C@H](CCCNC(=N)N)NC(=O)[C@H](CC(=O)O)NC(=O)[C@@H](N)CCCCN)C(=O)N[C@@H](CCCNC(=N)N)C(=O)N[C@@H](CC(=O)O)C(=O)N[C@@H](CC(C)C)C(=O)N[C@H](C(=O)NCC(=O)N[C@@H](C)C(=O)N[C@H](C(=O)N[C@@H](Cc1ccc(O)cc1)C(=O)NCC(=O)N[C@@H](C)C(=O)N[C@@H](Cc1c[nH]c2ccccc12)C(=O)N[C@@H](CC(=O)O)C(=O)N[C@@H](CCCCN)C(=O)N[C@@H](CCCCNC(=O)CCCC[C@@H]1SC[C@@H]2NC(=O)N[C@@H]21)C(N)=O)C(C)C)C(C)C [Clone 20C11] (H-KDRAFYNGLRDLVGAVYGAWDKK(Biotin)-NH2)	4.5	38	4.89																
CSCC[C@H](NC(=O)[C@@H](NC(=O)[C@H](CO)NC(=O)[C@H](CC(C)C)NC(=O)[C@H](CC(C)C)NC(=O)[C@H](C)NC(=O)[C@H](CO)NC(=O)[C@H](Cc1c[nH]c2ccccc12)NC(=O)[C@@H](N)CCCCN)C(C)C)C(=O)N[C@@H](CC(=O)O)C(=O)N[C@H](C(=O)NCC(=O)N[C@@H](Cc1ccccc1)C(=O)N[C@@H](Cc1ccc(O)cc1)C(=O)N[C@@H](C)C(=O)N[C@@H](Cc1c[nH]c2ccccc12)C(=O)N[C@@H](Cc1ccccc1)C(=O)N[C@@H](CC(=O)O)C(=O)N[C@@H](CC(=O)O)C(=O)N[C@@H](C)C(=O)N[C@H](C(=O)N[C@@H](CCCCN)C(=O)N[C@@H](CCCCNC(=O)CCCC[C@@H]1SC[C@@H]2NC(=O)N[C@@H]21)C(N)=O)C(C)C)[C@@H](C)O [Clone B8] (H-KWSALLSVMDTGFYAWFDDAVKK(Biotin)-NH2; N-terminus assumed)				2.55	1.30	0	20												
CC(C)[C@H](NC(=O)[C@H](C)NC(=O)[C@H](CO)NC(=O)[C@@H](NC(=O)[C@H](Cc1ccccc1)NC(=O)[C@@H](NC(=O)[C@@H](NC(=O)[C@H](CC(=O)O)NC(=O)[C@H](CCCCN)NC(=O)[C@H](Cc1ccc(O)cc1)NC(=O)[C@@H](N)CC(=O)O)C(C)C)[C@@H](C)O)[C@@H](C)O)C(=O)N[C@@H](Cc1ccccc1)C(=O)N[C@@H](Cc1c[nH]cn1)C(=O)N[C@@H](CCC(=O)O)C(=O)N[C@@H](CC(N)=O)C(=O)N[C@@H](Cc1ccccc1)C(=O)N[C@@H](Cc1ccc(O)cc1)C(=O)N[C@@H](CC(=O)O)C(=O)N[C@@H](Cc1c[nH]c2ccccc12)C(=O)N[C@@H](Cc1ccccc1)C(=O)N[C@H](C(=O)N[C@@H](CCCNC(=N)N)C(=O)N[C@@H](CCC(N)=O)C(=O)N[C@H](C(=O)N[C@@H](CO)C(=O)N[C@@H](CCCCN)C(=O)N[C@@H](CCCCNC(=O)CCCC[C@@H]1SC[C@@H]2NC(=O)N[C@@H]21)C(N)=O)C(C)C)C(C)C [Clone H2]						+2	7.2	detectable binding	Some response at basal insulin	Approx 20 µM	20 to 30	1.07	0.71	1.21	34.6	Insoluble, especially after freeze-thaw			
FHENFYDWFVRQVSKK [Clone H2C]						+2	8.6		Some response at basal insulin	Approx 20 µM	20 to 30	1.03	0.62	1.02		Precipitates	0.81	40-50 % of control	≥ 20
